From US9120812B2, “Pyrimidooxazocine derivatives as mTOR-inhibitors” (SANOFI, priority 2012, dated 2015) come the findings set out here.

One test deals with U87MG tumour cells. The test is described as follows: Test of in vitro proliferation of U87MG tumour cells. In kind it is cell-based. The settings on record: Homo sapiens, U-87 MG, 72 h, U87MG cells, 72 hours; read-out: U87 Cell Proliferation IC50. As to the method: Model 4: Test of in vitro Proliferation of U87MG Tumour Cells.
The cell growth is determined with the reagent CellTiter 96 AQueous One Solution Cell Proliferation Assay from Promega (Cat. No. G3581).

In a further test the target is PI3Kα (p110α/p85α) (Homo sapiens (Human), UniProt P42336). The test is described as follows: PI3Kα enzymatic test by measuring the consumption of ATP. In kind it is biochemical. In short, it runs like this: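 p110α/p85α (1.7 μg/ml) with 50 μM PIP2 and 2 μM ATP in pH 7.5 Tris buffer with EGTA, MgCl2, Chaps, DTT; reaction 90 min. Remaining ATP measured by luciferin/luciferase luminescence; IC50 from threefold serial dilutions spanning at least 10 000-fold.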
Chain of PI3Kα (p110α/p85α) (P42336 whole entry): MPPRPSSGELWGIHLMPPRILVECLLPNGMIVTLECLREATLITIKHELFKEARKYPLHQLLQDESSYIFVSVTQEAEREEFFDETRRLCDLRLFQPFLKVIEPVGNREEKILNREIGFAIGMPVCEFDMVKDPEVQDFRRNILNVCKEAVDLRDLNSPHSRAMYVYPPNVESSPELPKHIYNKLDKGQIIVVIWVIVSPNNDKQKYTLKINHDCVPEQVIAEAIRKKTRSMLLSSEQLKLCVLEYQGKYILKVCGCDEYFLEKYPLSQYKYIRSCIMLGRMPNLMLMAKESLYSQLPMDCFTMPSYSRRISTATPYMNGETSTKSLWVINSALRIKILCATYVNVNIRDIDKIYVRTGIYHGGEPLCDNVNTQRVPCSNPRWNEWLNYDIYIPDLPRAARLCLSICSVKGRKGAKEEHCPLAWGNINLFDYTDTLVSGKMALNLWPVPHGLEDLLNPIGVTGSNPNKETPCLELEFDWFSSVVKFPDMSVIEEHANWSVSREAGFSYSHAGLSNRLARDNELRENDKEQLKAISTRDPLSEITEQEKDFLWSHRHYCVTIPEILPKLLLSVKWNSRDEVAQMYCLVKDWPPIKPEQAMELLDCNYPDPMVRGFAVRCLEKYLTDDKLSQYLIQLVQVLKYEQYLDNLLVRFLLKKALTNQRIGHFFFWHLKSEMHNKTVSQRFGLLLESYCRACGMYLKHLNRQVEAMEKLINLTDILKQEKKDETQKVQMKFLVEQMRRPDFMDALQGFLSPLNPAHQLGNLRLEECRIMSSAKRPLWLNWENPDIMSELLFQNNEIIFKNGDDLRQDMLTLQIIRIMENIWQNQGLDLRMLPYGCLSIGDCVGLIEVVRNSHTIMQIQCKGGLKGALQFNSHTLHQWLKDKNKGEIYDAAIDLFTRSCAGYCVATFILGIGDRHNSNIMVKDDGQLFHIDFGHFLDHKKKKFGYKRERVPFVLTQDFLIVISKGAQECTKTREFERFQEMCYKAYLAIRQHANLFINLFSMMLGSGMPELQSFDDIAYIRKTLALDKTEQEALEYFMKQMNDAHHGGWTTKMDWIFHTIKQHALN
Chain of PI3Kα (p110α/p85α) (P27986 whole entry partner): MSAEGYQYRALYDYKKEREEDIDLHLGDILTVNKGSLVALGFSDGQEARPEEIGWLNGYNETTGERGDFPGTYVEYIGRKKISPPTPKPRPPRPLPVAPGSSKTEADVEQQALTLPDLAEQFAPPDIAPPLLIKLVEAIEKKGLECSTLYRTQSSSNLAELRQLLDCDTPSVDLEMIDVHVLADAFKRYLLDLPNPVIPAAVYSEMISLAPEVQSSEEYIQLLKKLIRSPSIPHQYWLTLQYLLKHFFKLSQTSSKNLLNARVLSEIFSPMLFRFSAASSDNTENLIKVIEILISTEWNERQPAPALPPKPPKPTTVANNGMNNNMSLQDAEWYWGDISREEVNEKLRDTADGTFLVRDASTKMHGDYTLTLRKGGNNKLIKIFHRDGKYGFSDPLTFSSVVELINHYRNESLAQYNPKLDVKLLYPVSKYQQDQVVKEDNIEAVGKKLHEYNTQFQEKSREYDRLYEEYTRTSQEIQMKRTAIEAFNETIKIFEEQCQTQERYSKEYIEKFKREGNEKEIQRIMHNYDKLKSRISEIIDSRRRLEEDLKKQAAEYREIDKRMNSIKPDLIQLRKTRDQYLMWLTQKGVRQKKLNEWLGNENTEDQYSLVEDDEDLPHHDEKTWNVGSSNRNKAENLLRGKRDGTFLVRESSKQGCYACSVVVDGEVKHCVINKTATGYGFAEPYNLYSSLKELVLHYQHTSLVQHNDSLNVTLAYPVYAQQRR

The target in test [1] is mTOR (human recombinant aa mTOR 1360-2549) (Homo sapiens (Human), UniProt P42345). Nature of the test: mTOR enzymatic test by TR-FRET (phosphorylation of GFP-4EBP1). In kind it is biochemical. The method in brief: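 TR-FRET detection of GFP-4EBP1 phosphorylation by a terbium-labelled anti-phospho-Thr46 antibody. Kinase reaction ran 30 min at room temperature, was quenched with EDTA (10 mM final) plus Tb-antibody (2 nM final) and left 60 min. Emission at 520 and 490 nm after 340 nm excitation, reported as the 520/490 ratio.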
Chain of mTOR (human recombinant aa mTOR 1360-2549) (P42345 1360-2549): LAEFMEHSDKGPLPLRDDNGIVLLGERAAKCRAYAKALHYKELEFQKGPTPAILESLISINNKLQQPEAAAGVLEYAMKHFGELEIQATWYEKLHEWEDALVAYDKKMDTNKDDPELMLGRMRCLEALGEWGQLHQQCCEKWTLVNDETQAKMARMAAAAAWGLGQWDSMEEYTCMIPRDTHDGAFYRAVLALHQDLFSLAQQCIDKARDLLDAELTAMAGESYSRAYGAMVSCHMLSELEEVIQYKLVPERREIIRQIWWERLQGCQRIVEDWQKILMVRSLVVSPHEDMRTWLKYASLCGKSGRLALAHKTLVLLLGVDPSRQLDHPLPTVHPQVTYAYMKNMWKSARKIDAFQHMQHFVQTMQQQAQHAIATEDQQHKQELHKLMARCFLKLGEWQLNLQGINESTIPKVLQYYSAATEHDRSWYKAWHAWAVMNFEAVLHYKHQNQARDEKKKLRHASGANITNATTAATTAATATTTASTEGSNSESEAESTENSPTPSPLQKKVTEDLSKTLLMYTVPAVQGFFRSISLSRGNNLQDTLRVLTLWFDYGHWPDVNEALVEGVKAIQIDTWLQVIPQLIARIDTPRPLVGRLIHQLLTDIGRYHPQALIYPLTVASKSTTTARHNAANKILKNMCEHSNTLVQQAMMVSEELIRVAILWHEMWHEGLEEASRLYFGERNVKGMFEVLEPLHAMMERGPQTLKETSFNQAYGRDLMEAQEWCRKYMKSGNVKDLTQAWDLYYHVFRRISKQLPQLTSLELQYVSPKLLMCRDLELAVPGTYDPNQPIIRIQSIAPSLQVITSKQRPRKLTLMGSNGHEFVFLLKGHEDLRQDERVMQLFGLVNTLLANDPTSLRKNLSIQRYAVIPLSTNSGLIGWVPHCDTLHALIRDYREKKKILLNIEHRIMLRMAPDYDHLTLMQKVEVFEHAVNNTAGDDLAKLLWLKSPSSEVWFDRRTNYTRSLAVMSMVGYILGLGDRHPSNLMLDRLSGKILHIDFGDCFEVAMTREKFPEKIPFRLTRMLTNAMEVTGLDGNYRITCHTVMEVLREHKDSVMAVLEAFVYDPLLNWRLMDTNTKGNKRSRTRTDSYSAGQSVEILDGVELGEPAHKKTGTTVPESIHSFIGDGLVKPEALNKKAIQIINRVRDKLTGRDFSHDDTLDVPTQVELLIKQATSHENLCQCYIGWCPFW

The subject of another test is Akt-pS473 in U87MG cells. Conditions: Homo sapiens, U-87 MG, read-out: U87 Akt-pS473 % Inhibition or IC50, nM (IC50), U87MG cells.

Some results are limits rather than exact numbers.

With `CCN1CC(C)(C)Oc2nc(N3CC4CCC(C3)O4)nc(-c3ccc(NC(=O)OCCO)c(F)c3)c2C1=O` [Example 222, {4-[6-Ethyl-8,8-dimethyl-2-(8-oxa-3-azabicyclo[3.2.1]oct-3-yl)-5-oxo-5,6,7,8-tetrahydro-9-oxa-1,3,6-triazabenzocyclohepten-4-yl]-2-fluorophenyl}carbamic acid 2-hydroxyethyl ester], the IC50 amounted to 1680 nM in the test with U87MG tumour cells, 123 nM in test [1] and 213 nM in the test on Akt-pS473 in U87MG cells. The “PI3Ka IC50” value on PI3Kα (p110α/p85α) is on record as above 10000 nM.
In the case of `CCN1CC(C)(C)Oc2nc(N3CCOC[C@@H]3C)nc(-c3ccc(NC(=O)Nc4cccc(OC(F)F)c4)cc3)c2C1=O` [Example 204, 1-(3-Difluoromethoxyphenyl)-3-{4-[6-ethyl-8,8-dimethyl-2-((S)-3-methylmorpholin-4-yl)-5-oxo-5,6,7,8-tetrahydro-9-oxa-1,3,6-triazabenzocyclohepten-4-yl]phenyl}urea], the IC50 in the test with U87MG tumour cells worked out at 74 nM; in test [1], 61 nM; in the test on Akt-pS473 in U87MG cells it was 18 nM. Besides, at PI3Kα (p110α/p85α), the “PI3Ka IC50” value was 468 nM.
As for `CCN1CC(C)(C)Oc2nc(N3CC4CCC(C3)O4)nc(-c3ccc(NC(=O)NC)c(F)c3)c2C1=O` [Example 1, 1-{4-[6-Ethyl-8,8-dimethyl-2-(8-oxa-3-azabicyclo[3.2.1]oct-3-yl)-5-oxo-5,6,7,8-tetrahydro-9-oxa-1,3,6-triazabenzocyclohepten-4-yl]-2-fluorophenyl}-3-methylurea], the IC50 in the test with U87MG tumour cells was found to be 197 nM; in test [1] it was 23 nM; in the test with Akt-pS473 in U87MG cells, 55 nM. Moreover, the “PI3Ka IC50” value at PI3Kα (p110α/p85α) worked out at 8841 nM.
Consider `CCN1CC(C)(C)Oc2nc(N3CC4CCC(C3)O4)nc(-c3ccc(NC(=O)Nc4ccc(N5CCOCC5)cn4)cc3)c2C1=O` [Example 250, 1-{4-[6-Ethyl-8,8-dimethyl-2-(8-oxa-3-azabicyclo[3.2.1]oct-3-yl)-5-oxo-5,6,7,8-tetrahydro-9-oxa-1,3,6-triazabenzocyclohepten-4-yl]phenyl}-3-(5-morpholin-4-ylpyridin-2-yl)urea], for which the IC50 with U87MG tumour cells is 100 nM; in test [1], 36 nM; in the test on Akt-pS473 in U87MG cells, 38 nM. Also, the “PI3Ka IC50” value on PI3Kα (p110α/p85α) was above 10000 nM.
In the same order, the values of `CCN1CC(C)(C)Oc2nc(N3CCOC[C@@H]3C)nc(-c3ccc(NC(=O)Nc4ccc(F)cc4F)cc3)c2C1=O` [Example 191, 1-(2,4-Difluorophenyl)-3-{4-[6-ethyl-8,8-dimethyl-2-((S)-3-methylmorpholin-4-yl)-5-oxo-5,6,7,8-tetrahydro-9-oxa-1,3,6-triazabenzocyclohepten-4-yl]phenyl}urea] are 105 nM, 24 nM, 26 nM and 570 nM.
In the same order, the values of `CCN1CC(C)(C)Oc2nc(N3CC4CCC(C3)O4)nc(-c3ccc(NC(=O)Nc4ccc(N5CCN(C)CC5)nc4)c(F)c3)c2C1=O` [Example 195, 1-{4-[6-Ethyl-8,8-dimethyl-2-(8-oxa-3-azabicyclo[3.2.1]oct-3-yl)-5-oxo-5,6,7,8-tetrahydro-9-oxa-1,3,6-triazabenzocyclohepten-4-yl]-2-fluorophenyl}-3-[6-(4-methylpiperazin-1-yl)pyridin-3-yl]urea] are 57 nM, 61 nM, 45 nM and 6800 nM.
In the same order, the values of `CCNC(=O)Nc1ccc(-c2nc(N3C4CCC3COC4)nc3c2C(=O)N(CC)CC(C)(C)O3)cc1F` [Example 255, 1-Ethyl-3-{4-[6-ethyl-8,8-dimethyl-2-(3-oxa-8-azabicyclo[3.2.1]oct-8-yl)-5-oxo-5,6,7,8-tetrahydro-9-oxa-1,3,6-triazabenzocyclohepten-4-yl]-2-fluorophenyl}urea] are 210 nM, 72 nM, 68 nM and above 10000 nM.
With `CCN1CC(C)(C)Oc2nc(N3CC4CCC(C3)O4)nc(-c3ccc(NC(=O)NC)cc3F)c2C1=O` [Example 47, 1-{4-[6-Ethyl-8,8-dimethyl-2-(8-oxa-3-azabicyclo[3.2.1]oct-3-yl)-5-oxo-5,6,7,8-tetrahydro-9-oxa-1,3,6-triazabenzocyclohepten-4-yl]-3-fluorophenyl}-3-methylurea], the IC50 in the test with U87MG tumour cells was 564 nM; in test [1] it was 34 nM; with Akt-pS473 in U87MG cells, 151 nM. For the same compound, the “PI3Ka IC50” value at PI3Kα (p110α/p85α) is listed as above 10000 nM.
For `CCN1CC(C)(C)Oc2nc(N3CC4CCC(C3)O4)nc(-c3ccc(NC(=O)Nc4cccnc4)c(F)c3)c2C1=O` [Example 223, 1-{4-[6-Ethyl-8,8-dimethyl-2-(8-oxa-3-azabicyclo[3.2.1]oct-3-yl)-5-oxo-5,6,7,8-tetrahydro-9-oxa-1,3,6-triazabenzocyclohepten-4-yl]-2-fluorophenyl}-3-pyridin-3-ylurea] the same measures were 61 nM, 20 nM, 4 nM and 2070 nM.
In the case of `CCN1CC(C)(C)Oc2nc(N3CCOC[C@@H]3C)nc(-c3ccc(NC(=O)Nc4ccc(N5CCOCC5)nc4)c(F)c3)c2C1=O` [Example 187, 1-{4-[6-Ethyl-8,8-dimethyl-2-((S)-3-methylmorpholin-4-yl)-5-oxo-5,6,7,8-tetrahydro-9-oxa-1,3,6-triazabenzocyclohepten-4-yl]-2-fluorophenyl}-3-(6-morpholin-4-ylpyridin-3-yl)urea], the results for the IC50 (with U87MG tumour cells; in test [1]; in the test with Akt-pS473 in U87MG cells) were 67 nM, 37 nM and 22 nM, respectively. The “PI3Ka IC50” value at PI3Kα (p110α/p85α) turned out to be 472 nM.
Take `CCN1CC(C)(C)Oc2nc(N3CC4CCC(C3)O4)nc(-c3ccc(NC(=O)NCCCO)cc3)c2C1=O` [Example 119, 1-{4-[6-Ethyl-8,8-dimethyl-2-(8-oxa-3-azabicyclo[3.2.1]oct-3-yl)-5-oxo-5,6,7,8-tetrahydro-9-oxa-1,3,6-triazabenzocyclohepten-4-yl]phenyl}-3-(3-hydroxypropyl)urea]: the results for the IC50 (with U87MG tumour cells; in test [1]; in the test on Akt-pS473 in U87MG cells) were above 3000 nM, 104 nM and 1060 nM, respectively. The “PI3Ka IC50” value on PI3Kα (p110α/p85α) is above 10000 nM.
In the same order, the values of `CCN1CC(C)(C)Oc2nc(N3CC4CCC(C3)O4)nc(-c3ccc(NC(=O)OCCO)cc3F)c2C1=O` [Example 246, {4-[6-Ethyl-8,8-dimethyl-2-(8-oxa-3-azabicyclo[3.2.1]oct-3-yl)-5-oxo-5,6,7,8-tetrahydro-9-oxa-1,3,6-triazabenzocyclohepten-4-yl]-3-fluorophenyl}carbamic acid 2-hydroxyethyl ester] are 1600 nM, 82 nM, 240 nM and above 10000 nM.
For the compound `CCN1CC(C)(C)Oc2nc(N3CCOC[C@@H]3C)nc(-c3ccc(NC(=O)Nc4ccnc(C)c4)c(F)c3)c2C1=O` [Example 199, 1-{4-[6-Ethyl-8,8-dimethyl-2-((S)-3-methylmorpholin-4-yl)-5-oxo-5,6,7,8-tetrahydro-9-oxa-1,3,6-triazabenzocyclohepten-4-yl]-2-fluorophenyl}-3-(2-methylpyridin-4-yl)urea], the results for the IC50 (in the test with U87MG tumour cells; in test [1]; in the test on Akt-pS473 in U87MG cells) were 32 nM, 39 nM and 10 nM, respectively. Also, on PI3Kα (p110α/p85α), the “PI3Ka IC50” value was 174 nM.
